Experimental data as given in patent US20090061005A1, “Paliperidone Polymorphs” (ACTAVIS GROUP PTC EHF, priority 2007, published 2009).
Several values for one entry are separate records, joined by “and”; a condition that tells them apart may be missing. Equal entries are not always repeated.

How the values were obtained:
[1] = Water (moisture) content of Form A2 by TGA; type: physicochemical
Method: Thermogravimetric analysis (TGA) was performed with a NETZSCH STA 409C/CD instrument. The term “water content” refers to the content of water based upon the Loss on Drying method as described in Pharmacopeial Forum, Vol. 24, No. 1, page 5438 (January-February 1998). The calculation of water content is based upon the percent of weight that is lost by drying. For Form A2 the term “water content” refers to the content of water based upon a TGA measurement.

[2] = Extended drying of Form A2 under vacuum (retention of hydrate water); type: physicochemical; conditions: drying for 12 hours at about 80° C. under vacuum

SMILES: Cc1nc2n(c(=O)c1CCN1CCC(c3noc4cc(F)ccc34)CC1)CCCC2O (racemic) [Form A2, (±)-3-[2-[4-(6-fluoro-1,2-benzisoxazol-3-yl)-1-piperidinyl]ethyl]-6,7,8,9-tetrahydro-9-hydroxy-2-methyl-4H-pyrido[1,2-a]pyrimidin-4-one]
- water content ([1]; Form A2 obtained by the process, stable and consistently reproducible): 2.5-4 % w/w
- Moisture content ([1]; isolated solid after drying under high vacuum at 60-70° C. for about 12 hours): 4 % w/w and 2.7 % w/w
- removal of moisture on extended drying [2]: moisture could not be removed
